Source: patent US12295938B2, “Composition for treating castration-resistant prostate cancer, comprising quassinoids” (SAMSUNG LIFE PUBLIC WELFARE FOUNDATION, priority 2019, dated 2025)
Structures can show the parent of a compound that is named as a salt.

Assays:
[1] = tested on: AR-V7 transcriptional activity; assay: MMTV-LUC luciferase reporter assay in 22RV1 cells, DHT− (screening and IC50); assay type: cell-based; details: 22RV1 cells, no DHT, control = 100
Experimental: (§1) A library of antimalarial agents was screened using a luciferase reporter assay to measure changes in AR/AR-V7 transcriptional activity.
(§2) Screening was made primarily with 10 μM of each drug.

[2] = tested on: AR transcriptional activity; assay: MMTV-LUC luciferase reporter assay in 22RV1 cells, DHT+ (screening and IC50); assay type: cell-based; details: with DHT, control = 100
Experimental: as §1, §2

Compound	activity at 10 µM ([1]; Homo sapiens, 10 uM) [%]	activity at 10 µM ([2]; Homo sapiens, 10 uM) [%]	MMTV-LUC activity (%) DHT− ([1]; 10 uM) [%]	MMTV-LUC activity (%) DHT+ ([2]; 10 uM) [%]	other results
CC(=O)Oc1cccc2c1C(=O)c1c(OC(C)=O)cc(C(=O)O)cc1C2=O [1,8-Diacetoxy-3-carboxyanthraquinone]	101 ± 8.7	98.5 ± 2.1	–	–	–
O=C1c2cccc(O)c2C(=O)c2c(O)cccc21 [1,8-Dihydroxyanthraquinone]	83.8 ± 2.9	–	–	–	–
CC1CCCC=CC(=O)c2c(O)cc(O)cc2CC(=O)O1 (stereo not drawn) [10,11-Dehydrocurvularin]	–	–	16.3 ± 2.5	5.5 ± 0.6	MMTV-LUC activity (%) DHT− ([1]; 1 uM): 383.1 ± 24.6%; MMTV-LUC activity (%) DHT+ ([2]; 1 uM): 206.9 ± 15.0%
CC[C@](C)(O)C(=O)O[C@H]1C(=O)O[C@@H]2C[C@H]3C(C)=CC(=O)[C@@H](O)[C@]3(C)[C@H]3[C@@]4(O)OC[C@]32[C@@H]1[C@@H](C)[C@H]4O [(+)-Glaucarubinone]	–	–	107.6 ± 26.5	117.7 ± 3.5	–
CC(=O)O[C@H](CC=C(C)C)C1=CC(=O)c2c(O)ccc(O)c2C1=O [Acetylshikonin]	38.6 ± 3.2	17.7 ± 1.5	–	–	activity at 1 µM ([1]; Homo sapiens, 1 uM): 103 ± 7.7%; activity at 1 µM ([2]; Homo sapiens, 1 uM): 113 ± 16.6%
O=C1c2c(O)cccc2C([C@@H]2O[C@H](CO)[C@@H](O)[C@H](O)[C@H]2O)c2cc(CO)cc(O)c21 (stereo partly drawn) [Aloin A]	–	–	108.3 ± 5.0	–	–
CCN(CC)Cc1cc(Nc2ccnc3cc(Cl)ccc23)ccc1O [Amodiaquine dihydrochloride dihydrate]	91.6 ± 2.9	102 ± 4.3	–	–	–
C=C1CC[C@@H]2[C@](C)(CO)[C@H](O)CC[C@@]2(C)[C@@H]1C/C=C1/C(=O)OC[C@H]1O [Andrographolide]	157 ± 4.3	196 ± 5	–	–	–
CO[C@H]1O[C@@H]2O[C@@]3(C)CC[C@H]4[C@H](C)CC[C@@H]([C@H]1C)[C@@]24OO3 [Artemether]	97.5 ± 19.5	138 ± 8.8	–	–	–
C[C@@H]1CC[C@H]2[C@@H](C)C(=O)O[C@@H]3O[C@@]4(C)CC[C@@H]1[C@]32OO4 [Artemisinin]	107 ± 4.3	156 ± 17.6	–	–	–
C[C@H]1[C@H](OC(=O)CCC(=O)O)O[C@@H]2O[C@@]3(C)CC[C@H]4[C@H](C)CC[C@@H]1[C@@]24OO3 [Artesunate]	107.6 ± 0.8	–	–	–	–
COc1c(O)cc2c(c1O)C(=O)c1c(cc(C)c(O)c1OC)C2=O [Aurantio-obtusin]	119 ± 27.4	124 ± 2.2	–	–	–
COC(=O)[C@]12OC[C@]34[C@H]([C@@H](O)[C@@H]1O)[C@@]1(C)CC(=O)C(O)=C(C)[C@@H]1C[C@H]3OC(=O)[C@H](OC(=O)/C=C(\C)C(C)(C)OC(C)=O)[C@@H]24 [Bruceantinol]	81.2 ± 62.1	44.5 ± 2.1	–	–	activity at 1 µM ([1]; Homo sapiens, 1 uM): 73.5 ± 11.9%; activity at 1 µM ([2]; Homo sapiens, 1 uM): 119 ± 21.8%
COC(=O)[C@]12OC[C@]34[C@H]([C@@H](O)[C@@H]1O)[C@@]1(C)C=C(O[C@@H]5O[C@H](CO)[C@@H](O)[C@H](O)[C@H]5O)C(=O)[C@@H](C)[C@@H]1C[C@H]3OC(=O)[C@H](OC(=O)/C=C(\C)C(C)C)[C@@H]24 [Bruceantinoside A]	–	–	6.5 ± 0.9	3.8 ± 1.1	MMTV-LUC activity (%) DHT− ([1]; 0.1 uM): 44.9 ± 5.5%; MMTV-LUC activity (%) DHT− ([1]; 1 uM): 11.5 ± 5.6%; MMTV-LUC activity (%) DHT+ ([2]; 0.1 uM): 61.0 ± 7.3%; MMTV-LUC activity (%) DHT+ ([2]; 1 uM): 8.0 ± 0.2%
CC1=CC(=O)[C@@H](O)[C@]2(C)[C@H]3[C@@H](O)[C@H](O)[C@]4(C)OC[C@@]35[C@@H](C[C@@H]12)OC(=O)[C@H](O)[C@]54O [Bruceine D]	–	–	7.9 ± 1.3	1.1 ± 0.1	MMTV-LUC activity (%) DHT− ([1]; 0.1 uM): 46.0 ± 6.4%; MMTV-LUC activity (%) DHT− ([1]; 1 uM): 7.0 ± 1.2%; MMTV-LUC activity (%) DHT+ ([2]; 0.1 uM): 32.6 ± 6.2%; MMTV-LUC activity (%) DHT+ ([2]; 1 uM): 2.0 ± 0.2%
C[C@H]1COC2=C1C(=O)C(=O)c1c2ccc2c1CCCC2(C)C [Cryptotanshinone]	70.3 ± 3.2	62.7 ± 15.3	–	–	–
CC1CCCCCC(=O)c2c(O)cc(O)cc2CC(=O)O1 (stereo not drawn) [Curvularin]	76.8 ± 3	91.6 ± 9.4	–	–	–
COC(=O)[C@]12OC[C@@]34[C@@H](CC5=C(C)C(=O)C(O)=C[C@]5(C)[C@H]3[C@@H](O)[C@@H]1O)OC(=O)[C@H](OC(=O)CC(C)C)[C@@H]24 [Dehydrobruceine A]	–	–	133.8 ± 14.5	164.2 ± 16.0	–
C[C@H]1[C@@H](O)O[C@@H]2O[C@@]3(C)CC[C@H]4[C@H](C)CC[C@@H]1[C@@]24OO3 [Dihydroartemisinin]	115 ± 10.1	138 ± 7	–	–	–
CNC(=O)c1ccc(N2C(=S)N(c3ccc(C#N)c(C(F)(F)F)c3)C(=O)C2(C)C)cc1F [Enzalutamide]	79.4 ± 34.6	–	–	–	activity at 1 µM ([1]; Homo sapiens, 1 uM): 87.4 ± 11.3%
C=C1[C@@H](O)[C@]2(O)OC[C@]34[C@H]2[C@@]2(C)[C@H](O)C(=O)C=C(C)[C@@H]2C[C@H]3OC(=O)[C@H](O)[C@@]14O [Eurycomanone]	17.7 ± 2.7	6.7 ± 0.5	–	–	activity at 0.1 µM ([1]; Homo sapiens, 0.1 uM): 128 ± 12%; activity at 1 µM ([1]; Homo sapiens, 1 uM): 59.1 ± 7.6%; activity at 0.1 µM ([2]; Homo sapiens, 0.1 uM): 108 ± 4.7%; activity at 1 µM ([2]; Homo sapiens, 1 uM): 51.3 ± 4.6%

Compound	activity at 10 µM ([1]; Homo sapiens, 10 uM) [%]	activity at 10 µM ([2]; Homo sapiens, 10 uM) [%]	MMTV-LUC activity (%) DHT− ([1]; 10 uM) [%]	MMTV-LUC activity (%) DHT+ ([2]; 10 uM) [%]	other results
C[C@H](CC(=O)C[C@@H](C)[C@H]1C[C@H](O)[C@@]2(C)C3=C(C(=O)C[C@]12C)[C@@]1(C)CCC(=O)C(C)(C)[C@@H]1C[C@@H]3O)C(=O)O [Ganoderic acid A]	–	–	140.0 ± 3.8	148.9 ± 2.8	–
CCN(CCO)CCCC(C)Nc1ccnc2cc(Cl)ccc12 (stereo not drawn) [Hydroxychloroquinesulfate]	92.3 ± 2	–	–	–	–
C=CC(C)(C)c1cc(/C=C/C(=O)c2ccc(O)cc2)c(OC)cc1O [Licochalcone A]	–	–	202.7 ± 7.1	235.6 ± 0.2	–
CCCCN(CCCC)CC(O)c1cc(Cl)cc2c1-c1ccc(Cl)cc1/C2=C/c1ccc(Cl)cc1 (stereo not drawn) [Lumefantrine]	138 ± 9.5	–	–	–	–
C=CCc1ccc(O)c(-c2cc(CC=C)ccc2O)c1 [Magnolol]	130 ± 12	152 ± 8.6	–	–	–
COC(=O)c1c2c(c3ccccc3c1O)OC(C)(C)C=C2 [Mollugin]	94.7 ± 9.5	112 ± 11.1	–	–	–
O=C(Nc1ccc([N+](=O)[O-])cc1Cl)c1cc(Cl)ccc1O [Niclosamide]	9.4 ± 0.6	–	–	–	activity at 1 µM ([1]; Homo sapiens, 1 uM): 119 ± 10.8%
O=C(CCc1ccc(O)cc1)c1c(O)cc(O)cc1O[C@@H]1O[C@H](CO)[C@@H](O)[C@H](O)[C@H]1O [Phlorizin]	154 ± 6.6	184 ± 12.6	–	–	–
CC1=CC(=O)c2c(O)cccc2C1=O [Plumbagin]	26 ± 7.6	7.1 ± 0.1	–	–	activity at 1 µM ([1]; Homo sapiens, 1 uM): 215 ± 16.1%; activity at 1 µM ([2]; Homo sapiens, 1 uM): 143 ± 27.5%
CCc1nc(N)nc(N)c1-c1ccc(Cl)cc1 [Pyrimethamine]	130.5 ± 0.2	–	–	–	–
COC1=C[C@@H](C)[C@@H]2C[C@H]3OC(=O)C[C@H]4C(C)=C(OC)C(=O)[C@H]([C@@]2(C)C1=O)[C@@]34C [Quassin]	110 ± 9	120 ± 5.6	–	–	–
O=C(O)c1cc(O)c2c(c1)C(=O)c1cccc(O)c1C2=O [Rhein]	83 ± 9.2	–	–	–	–
O=C(O)c1cc(O)c2c(c1)[C@H]([C@H]1c3cc(C(=O)O)cc(O)c3C(=O)c3c(O[C@@H]4O[C@H](CO)[C@@H](O)[C@H](O)[C@H]4O)cccc31)c1cccc(O[C@@H]3O[C@H](CO)[C@@H](O)[C@H](O)[C@H]3O)c1C2=O [Sennoside A]	–	–	105.5 ± 4.4	–	–
COc1ncnc(NS(=O)(=O)c2ccc(N)cc2)c1OC [Sulfadoxine]	116 ± 4.4	–	–	–	–
CC1=CC(=O)[C@@H](O)[C@]2(C)[C@H]3[C@@H](O)[C@H](O)[C@]4(CO)OC[C@@]35[C@@H](C[C@@H]12)OC(=O)[C@H](O)[C@]54O [Yadanziolide A]	–	–	8.0 ± 0.6	4.1 ± 0.2	MMTV-LUC activity (%) DHT− ([1]; 1 uM): 54.1 ± 13.0%; MMTV-LUC activity (%) DHT+ ([2]; 1 uM): 58.3 ± 10.9%
CC1=CC(=O)[C@@H](O)[C@@]2(C)[C@H]1[C@@H](O)[C@H]1OC(=O)[C@H](O)[C@]3(O)[C@]14CO[C@]3(CO)[C@@H](O)[C@H](O)[C@H]24 [Yadanziolide B]	–	–	8.2 ± 1.0	4.0 ± 0.5	MMTV-LUC activity (%) DHT− ([1]; 0.1 uM): 23.1 ± 5.2%; MMTV-LUC activity (%) DHT− ([1]; 1 uM): 7.2 ± 0.8%; MMTV-LUC activity (%) DHT+ ([2]; 0.1 uM): 32.8 ± 9.0%; MMTV-LUC activity (%) DHT+ ([2]; 1 uM): 4.2 ± 0.4%
COC(=O)[C@]12OC[C@]34[C@H]([C@@H](O)[C@@H]1O)[C@@]1(C)C=C(O[C@@H]5O[C@H](CO)[C@@H](O)[C@H](O)[C@H]5O)C(=O)[C@@H](C)[C@@H]1C[C@H]3OC(=O)[C@H](OC(=O)/C=C(\C)C(C)(C)O)[C@@H]24 [Yadanzioside C]	–	–	110.4 ± 11.6	5.8 ± 0.7	MMTV-LUC activity (%) DHT− ([1]; 1 uM): 118.9 ± 18.1%; MMTV-LUC activity (%) DHT+ ([2]; 1 uM): 55.6 ± 0.7%
COC(=O)[C@]12OC[C@]34[C@H]([C@@H](O)[C@@H]1O)[C@@]1(C)C=C(O[C@@H]5O[C@H](CO)[C@@H](O)[C@H](O)[C@H]5O)C(=O)[C@@H](C)[C@@H]1C[C@H]3OC(=O)[C@H](OC(C)=O)[C@@H]24 [Yadanzioside F]	–	–	133.6 ± 21.7	139.5 ± 11.0	–
COC(=O)[C@]12OC[C@]34[C@H]([C@@H](O)[C@@H]1O)[C@@]1(C)CC(=O)C(O[C@@H]5O[C@H](CO)[C@@H](O)[C@H](O)[C@H]5O)=C(C)[C@@H]1C[C@H]3OC(=O)[C@H](OC(C)=O)[C@@H]24 [Yadanzioside I]	–	–	123.2 ± 10.4	136.0 ± 7.1	–
CC(C)=CC[C@H](OC(=O)C=C(C)C)C1=CC(=O)c2c(O)ccc(O)c2C1=O [β, β-Dimethylacrylalkannin]	–	–	33.3 ± 3.2	19.9 ± 3.5	MMTV-LUC activity (%) DHT− ([1]; 1 uM): 100.2 ± 11.4%; MMTV-LUC activity (%) DHT+ ([2]; 1 uM): 107.9 ± 7.0%
Bruceanic acid C	–	–	68.5 ± 6.3	85.8 ± 14.2	–
